Values after ≈ are worked out from the molar mass of the structure shown. A value given as a limit tells only on which side of the number the result lay.

In data set [1] the test system is Bacillus anthracis. Nature of the data set: Antimicrobial activity against Bacillus anthracis Sterne by CLSI method. The format is functional.
Data set [2] relates to Klebsiella pneumoniae. Put plainly: Antimicrobial activity against Klebsiella pneumoniae 13882 by CLSI method. The format is functional. The conditions noted are these: Klebsiella pneumoniae, 13882; read-out: MIC.
Data set [3] can be described thus: Cytotoxicity against human HeLa cells by MTS assay. The format is cell-based. The note with it: HeLa cells. Background: Tetrazolium dyes change colour on reduction, which living cells bring about.
For data set [4], the system named is Enterococcus faecalis. Nature of the data set: Antimicrobial activity against vancomycin-resistant Enterococcus faecalis ATCC 51575 by CLSI method. The format is functional. The conditions noted are these: Enterococcus faecalis, ATCC 51575; read-out: MIC.
The subject of data set [5] is Escherichia coli. Nature of the data set: Antimicrobial activity against TolC-deficient Escherichia coli by CLSI method. The format is functional.
In data set [6] the test system is Bacillus subtilis. Put plainly: Antimicrobial activity against Bacillus subtilis BD54 by CLSI method. The format is functional. The conditions noted are these: Bacillus subtilis, BD54; read-out: MIC.
Data set [7] relates to Escherichia coli. Put plainly: Antimicrobial activity against TolC+ Escherichia coli 700 by CLSI method. The format is functional. The note with it: Escherichia coli, 700; read-out: MIC.
Data set [8] relates to Pseudomonas aeruginosa. Put plainly: Antimicrobial activity against Pseudomonas aeruginosa PAO1 by CLSI method. The note with it: Pseudomonas aeruginosa, PAO1; read-out: MIC. The format is functional.
Data set [9] has as its system Staphylococcus aureus. Put plainly: Antimicrobial activity against methicillin-resistant Staphylococcus aureus 1094 by CLSI method. The format is functional. The conditions noted are these: Staphylococcus aureus, 1094; read-out: MIC.
[10] abbreviates: Bacillus anthracis, Sterne, read-out: MIC.
Where [11] appears, read: Escherichia coli, read-out: MIC.

Regarding `Cc1c(-c2ccc(-c3cc4ccc(C5=NCCCN5)cc4o3)cc2)[nH]c2cc(C3=NCCCN3)ccc12`, the MIC in data set [1] (setting [10]) was found to be 0.08 µg/mL (≈ 0.164 µM); in data set [2] it was 0.31 µg/mL (≈ 0.636 µM); in [4], 0.16 µg/mL (≈ 0.328 µM); in data set [5] (setting [11]), 0.31 µg/mL (≈ 0.636 µM); in data set [6] it was 0.08 µg/mL (≈ 0.164 µM); in data set [7] it was 0.31 µg/mL (≈ 0.636 µM). Also, the values for the MIC in [8] and in [9] were 1.25 µg/mL (≈ 2.56 µM) and 0.16 µg/mL (≈ 0.328 µM), respectively. Also, the half-maximal cytotoxic concentration (CC50) in data set [3] is 1.5 µg/mL (≈ 3.08 µM).

`c1cc2cc(-c3ccc(-c4cnc(N5CCCC5)nc4)cc3)[nH]c2cc1C1=NCCCN1`: the MIC in data set [1] (setting [10]) was 0.63 µg/mL (≈ 1.49 µM); in data set [2] it was over 80 µg/mL; in data set [4] it was 5 µg/mL (≈ 11.8 µM); in data set [5] (setting [11]) it was 0.63 µg/mL (≈ 1.49 µM); in data set [6], 0.63 µg/mL (≈ 1.49 µM); in data set [7], over 80 µg/mL. Moreover, the minimum inhibitory concentration (MIC) in data set [8] is over 80 µg/mL; in [9], 2.5 µg/mL (≈ 5.92 µM). This compound had a CC50 in data set [3] of 5.7 µg/mL (≈ 13.5 µM).

In the case of `CC1CNC(c2ccc3cc(-c4ccc(-c5cnc(N6CCOCC6)nc5)cc4)[nH]c3c2)=N1` (stereo not drawn), the minimal inhibitory concentration (MIC) in [1] (setting [10]) was 22.5 µg/mL (≈ 51.3 µM); in [2], over 80 µg/mL; in [4] it was over 80 µg/mL; in data set [5] (setting [11]) it was 60 µg/mL (≈ 137 µM); in [6], 10 µg/mL (≈ 22.8 µM); in data set [7] it was over 80 µg/mL. Further, the minimal inhibitory concentration (MIC) in data set [8] and in data set [9] was over 80 µg/mL throughout. Also, the midpoint of cytotoxicity in data set [3], the CC50, lay at 1.3 µg/mL (≈ 2.96 µM).

On to `OC1CN=C(c2ccc3cc(-c4ccc(-c5cc6ccc(C7=NCC(O)CN7)cc6o5)s4)[nH]c3c2)NC1` (stereo not drawn), for which the MIC amounted to 1.25 µg/mL (≈ 2.44 µM) in [1] (setting [10]); 15 µg/mL (≈ 29.3 µM) in data set [2]; 2.5 µg/mL (≈ 4.89 µM) in data set [4]; 0.47 µg/mL (≈ 0.919 µM) in data set [5] (setting [11]); 0.43 µg/mL (≈ 0.84 µM) in data set [6]; 5 µg/mL (≈ 9.77 µM) in data set [7]. Moreover, the results for the minimum inhibitory concentration (MIC) in data set [8] and in data set [9] were 40 µg/mL (≈ 78.2 µM) and 1.88 µg/mL (≈ 3.67 µM), respectively. This compound also gave a half-maximal cytotoxic concentration (CC50) in data set [3] of 12.7 µg/mL (≈ 24.8 µM).

`Fc1cc(-c2cc3ccc(C4=NCCCN4)cc3[nH]2)ccc1-c1cc2ccc(C3=NCCCN3)cc2o1`: the MIC in data set [1] (setting [10]) worked out at 0.08 µg/mL (≈ 0.163 µM); in data set [2] it was 0.63 µg/mL (≈ 1.28 µM); in [4], 0.16 µg/mL (≈ 0.325 µM); in [5] (setting [11]), 0.31 µg/mL (≈ 0.631 µM); in data set [6] it was 0.08 µg/mL (≈ 0.163 µM); in data set [7] it was 0.63 µg/mL (≈ 1.28 µM). Moreover, the MIC in data set [8] worked out at 2.5 µg/mL (≈ 5.09 µM); in data set [9], 0.16 µg/mL (≈ 0.325 µM). The same compound yielded a CC50 in data set [3] of 14.3 µg/mL (≈ 29.1 µM).

With `CC1CNC(c2ccc3cc(-c4ccc(-c5cnc(N6CCCC6)nc5)cc4)[nH]c3c2)=N1` (stereo not drawn), the MIC in data set [1] (setting [10]) was 40 µg/mL (≈ 94.7 µM); in data set [2] it was over 80 µg/mL; in [4], over 80 µg/mL; in [5] (setting [11]), 40 µg/mL (≈ 94.7 µM); in data set [6], 40 µg/mL (≈ 94.7 µM); in data set [7], over 80 µg/mL. In addition, the MIC in data set [8] is over 80 µg/mL; in data set [9], 40 µg/mL (≈ 94.7 µM). In [3], this compound had a CC50 of 1.1 µg/mL (≈ 2.6 µM).

`CC1CNC(c2ccc3cc(-c4ccc(-c5cc6ccc(C7=NC(C)CN7)cc6o5)cc4)[nH]c3c2)=N1` (stereo in doubt): the MIC in data set [1] is 0.31 µg/mL (≈ 0.655 µM); in [2], 2.5 µg/mL (≈ 5.28 µM); in data set [4] it was 0.39 µg/mL (≈ 0.824 µM); in [5] it was 0.63 µg/mL (≈ 1.33 µM); in data set [6], 0.2 µg/mL (≈ 0.422 µM); in [7], 0.63 µg/mL (≈ 1.33 µM). Further, the MIC in data set [8] turned out to be 60 µg/mL (≈ 127 µM); in data set [9], 0.31 µg/mL (≈ 0.655 µM). Also, the midpoint of cytotoxicity in data set [3], the CC50, lay at 5.7 µg/mL (≈ 12 µM).

Turning to `c1cc2cc(-c3ccc(-c4cc5ccc(C6=NCCCN6)cc5o4)s3)[nH]c2cc1C1=NCCCN1`, the minimal inhibitory concentration (MIC) in data set [1] (setting [10]) is 0.16 µg/mL (≈ 0.334 µM); in data set [2], 2.5 µg/mL (≈ 5.21 µM); in [4] it was 0.31 µg/mL (≈ 0.646 µM); in [5] (setting [11]) it was 0.31 µg/mL (≈ 0.646 µM); in data set [6] it was 0.08 µg/mL (≈ 0.167 µM); in data set [7], 0.63 µg/mL (≈ 1.31 µM). The MIC in [8] stood at 10 µg/mL (≈ 20.9 µM); in data set [9], 0.31 µg/mL (≈ 0.646 µM). The same compound gave a CC50 in data set [3] of 8.7 µg/mL (≈ 18.1 µM).

Regarding `NCCCNc1cc(-c2cc3ccc(C4=NCCCN4)cc3[nH]2)ccc1-c1cc2ccc(C3=NCCCN3)cc2o1`, the MIC in data set [1] (setting [10]) was found to be 0.63 µg/mL (≈ 1.15 µM); in [2], 1.25 µg/mL (≈ 2.29 µM); in data set [4], 1.25 µg/mL (≈ 2.29 µM); in [5] (setting [11]) it was 0.63 µg/mL (≈ 1.15 µM); in data set [6] it was 0.24 µg/mL (≈ 0.44 µM); in data set [7], 2.5 µg/mL (≈ 4.58 µM). Further, the minimum inhibitory concentration (MIC) is 2.5 µg/mL (≈ 4.58 µM) in [8] and 0.63 µg/mL (≈ 1.15 µM) in data set [9]. In data set [3], this compound registered a CC50 of 4.6 µg/mL (≈ 8.43 µM).

Turning to `FC1CN=C(c2ccc3cc(-c4ccc(-c5cc6ccc(C7=NCC(F)CN7)cc6o5)cn4)[nH]c3c2)NC1` (stereo not drawn), the minimal inhibitory concentration (MIC) in data set [1] (setting [10]) was found to be 0.63 µg/mL (≈ 1.23 µM); in data set [2] it was 2.5 µg/mL (≈ 4.9 µM); in data set [4] it was 0.63 µg/mL (≈ 1.23 µM); in data set [5] (setting [11]) it was 0.31 µg/mL (≈ 0.607 µM); in [6] it was 0.16 µg/mL (≈ 0.313 µM); in data set [7] it was 8.3 µg/mL (≈ 16.3 µM). For the same compound, the values for the MIC in [8] and in [9] were 8.3 µg/mL (≈ 16.3 µM) and 0.83 µg/mL (≈ 1.63 µM), respectively. Moreover, the cytotoxic concentration (CC50) in [3] stood at 19.6 µg/mL (≈ 38.4 µM).

As to `Cc1c(-c2ccc(-c3cc4ccc(C5=NCCCN5)cc4o3)cc2)[nH]c2cccc(C#N)c12`, the minimum inhibitory concentration (MIC) in [1] (setting [10]) was 2.5 µg/mL (≈ 5.81 µM); in data set [2], 20 µg/mL (≈ 46.5 µM); in [4] it was 5 µg/mL (≈ 11.6 µM); in [5] (setting [11]), 10 µg/mL (≈ 23.2 µM); in data set [6], 2.5 µg/mL (≈ 5.81 µM); in [7] it was 20 µg/mL (≈ 46.5 µM). The values for the MIC in data set [8] and in data set [9] were 40 µg/mL (≈ 92.9 µM) and 5 µg/mL (≈ 11.6 µM), respectively.

For orientation: MIC means the smallest concentration in the dilution series that meets the test's criterion for growth inhibition. A word on the CC50: it is the concentration that lowers cell viability or growth by half. Low values mean greater toxicity to the cells, high ones lower toxicity to the cells.

The record behind these values is ChEMBL document CHEMBL3352668, “Synthesis and antibacterial evaluation of new, unsymmetrical triaryl bisamidine compounds” (Bioorg Med Chem Lett, 2014).
